Test results from ChEMBL document CHEMBL3272066, “Synthesis of nitrosourea derivatives of sucrose as central nervous system anticancer agents” (J Med Chem, 1977).

Key:
[1] = system: L1210; assay: Antitumor activity against mouse L1210 cells allografted in CDF1 mouse at 50 mg/kg, ip administered from day 1 to day 9 relative to control; type: functional; details: route intraperitoneal
[2] = Antitumor activity against mouse ependymoblastoma cells allografted in […] mouse at 200 mg/kg, ip administered from day 1 to day 5 relative to control; type: functional; details: route intraperitoneal
[3] = Antitumor activity against mouse ependymoblastoma cells allografted in […] mouse at 100 mg/kg, ip administered from day 1 to day 5 relative to control; type: functional; details: route intraperitoneal
[4] = system: L1210; assay: Antitumor activity against mouse L1210 cells allografted in CDF1 mouse at 100 mg/kg, ip administered from day 1 to day 9 relative to control; type: functional; details: route intraperitoneal
[5] = system: Mus musculus; assay: Toxicity in […] mouse allografted with mouse ependymoblastoma cells at 400 mg/kg, ip administered from day 1 to day 5 relative to control; type: organism-based; parameters: dose 400 mg/kg, route intraperitoneal; details: in vivo
[6] = Antitumor activity against mouse ependymoblastoma cells allografted in […] mouse at 50 mg/kg, ip administered from day 1 to day 5 relative to control; type: functional; details: route intraperitoneal
[7] = system: L1210; assay: Antitumor activity against mouse L1210 cells allografted in CDF1 mouse at 200 mg/kg, ip administered from day 1 to day 9 relative to control; type: functional; details: route intraperitoneal
[8] = Antitumor activity against mouse ependymoblastoma cells allografted in C57BL/6 mouse at 130 mg/kg, ip administered from day 1 to day 5 relative to control; type: functional; details: route intraperitoneal
[9] = system: L1210; assay: Antitumor activity against mouse L1210 cells allografted in CDF1 mouse at 44 mg/kg, ip administered from day 1 to day 9 relative to control; type: functional; details: route intraperitoneal
[10] = system: L1210; assay: Antitumor activity against mouse L1210 cells allografted in CDF1 mouse at 66 mg/kg, ip administered from day 1 to day 9 relative to control; type: functional; details: route intraperitoneal
[11] = Antitumor activity against mouse ependymoblastoma cells allografted in C57BL/6 mouse at 100 mg/kg, ip administered from day 1 to day 5 relative to control; type: functional; details: route intraperitoneal
[12] = system: L1210; assay: Antitumor activity against mouse L1210 cells allografted in CDF1 mouse at 29 mg/kg, ip administered from day 1 to day 9 relative to control; type: functional; details: route intraperitoneal

Row | Compound | T/C [1] [%] | T/C [2] [%] | T/C [3] [%] | T/C [4] [%] | Activity [5] | T/C [6] [%] | T/C [7] [%] | T/C [8] [%] | T/C [9] [%] | T/C [10] [%] | T/C [11] [%] | T/C [12] [%]
1 | CN(N=O)C(=O)NC[C@H]1O[C@@](CNC(=O)N(C)N=O)(O[C@H]2O[C@H](CNC(=O)N(C)N=O)[C@@H](O)[C@H](O)[C@H]2O)[C@@H](O)[C@@H]1O | 110 | 133 | 120 | 117 | Non-toxic | 97 | 137 | – | – | – | – | –
2 | CN(N=O)C(=O)NC[C@H]1O[C@@](CO)(O[C@H]2O[C@H](CNC(=O)N(C)N=O)[C@@H](O)[C@H](O)[C@H]2O)[C@@H](O)[C@@H]1O | 107 | 148 | 97 | 129 | Toxic | 111 | 137 | – | – | – | – | –
3 | CC(=O)OC[C@@]1(O[C@H]2O[C@H](CNC(=O)N(C)N=O)[C@@H](OC(C)=O)[C@H](OC(C)=O)[C@H]2OC(C)=O)O[C@H](CNC(=O)N(C)N=O)[C@@H](OC(C)=O)[C@@H]1OC(C)=O | 109 | – | – | 105 | – | – | 119 | – | – | – | – | –
4 | CC(=O)O[C@@H]1[C@@H](OC(C)=O)[C@@H](O[C@]2(CNC(=O)N(C)N=O)O[C@H](CNC(=O)N(C)N=O)[C@@H](OC(C)=O)[C@@H]2OC(C)=O)O[C@H](CNC(=O)N(C)N=O)[C@H]1OC(C)=O | 104 | – | – | 102 | – | – | 120 | – | – | – | – | –
5 | CN(N=O)C(=O)N[C@@H](C=O)[C@@H](O)[C@H](O)[C@H](O)CO [STREPTOZOCIN] | – | – | – | 107 | – | – | – | 127 | 137 | 109 | 144 | 117
